This note sets out measurements from US20210369853A1, “TARGETED PROTEASE DEGRADATION PLATFORM” (EUBULUS BIOTHERAPEUTICS INC., priority 2018, published 2021).

Like-named read-outs stand apart in the source and are kept apart here.

Holding throughout (assay type): cell-based
Experiment [1] concerns Human Acute Lymphoblastic Leukemia Cells MOLT-4. In words: Cell proliferation experiment (Alarm blue, 72 h, EC50). As to conditions: MOL4-4 cells. A digest of the protocol:
(§1)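 Alamar blue fluorescence after 72 h compound exposure; 5-fold serial dilutions, duplicate wells per concentration; EC50 from four-parameter logistic fit.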

Experiment [2] concerns Human Acute Myelomonocytic Leukemia HL-60. The description is as above. As to conditions: HL-60 cells. A digest of the protocol: as §1
For experiment [3], the system named is Human Breast Cancer MDA-MB-231. Described as above. The settings on record: MDA-MB-231 cells. Summed up:
as §1

For experiment [4], the system named is Human Colon Cancer HCT-116. The experiment is described as above. As to conditions: HCT116 cells. Summed up: as §1
The next experiment has as its system Human Colon Cancer HT-29. The experiment is described as above. The settings on record: HT-29 cells. Summed up: as §1
The test system of experiment [5] is Human Glioma Cells U-87 MG. Described as above. As to conditions: U-87MG cells. A digest of the protocol: as §1
Experiment [6] has as its system Human Monocytic Leukemia MV4-11. Described as above. As to conditions: Homo sapiens. A digest of the protocol: as §1
Experiment [7] relates to Human Monocytic Leukemia THP-1. The experiment is described as above. The settings on record: THP-1 cells. A digest of the protocol:
as §1

The test system of experiment [8] is Human Ovarian Cancer SK-OV-3. The description is as above. As to conditions: SKO3 cells. A digest of the protocol:
as §1

The test system of experiment [9] is Human Small Cell Lung Cancer NCI-H82. The description is as above. The settings on record: Homo sapiens, NCI-H82; NCIH82 cells. A digest of the protocol:
as §1

Experiment [10] deals with Human cervical adenocarcinoma cells Hela. Described as above. A digest of the protocol: as §1
For a further experiment, the target named is T1, BRD4 (Homo sapiens, UniProt O60885).
T1 construct: endogenous in cells
In words: Western blot, protein degradation (DC50). A digest of the protocol: (§2)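 Protein loss read by ECL Western blot after compound treatment of cells; RIPA lysates run on 4%-12% SDS-PAGE, transferred to PVDF, primary antibody overnight at 4° C. Degradation derived from quantified band intensities.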
In general terms: Immunoblotting shows a protein as a band on a membrane.

The target in another experiment is T2, PLK1 (Homo sapiens, UniProt P53350).
T2 construct: endogenous in cells
T2 sequence (P53350 whole entry): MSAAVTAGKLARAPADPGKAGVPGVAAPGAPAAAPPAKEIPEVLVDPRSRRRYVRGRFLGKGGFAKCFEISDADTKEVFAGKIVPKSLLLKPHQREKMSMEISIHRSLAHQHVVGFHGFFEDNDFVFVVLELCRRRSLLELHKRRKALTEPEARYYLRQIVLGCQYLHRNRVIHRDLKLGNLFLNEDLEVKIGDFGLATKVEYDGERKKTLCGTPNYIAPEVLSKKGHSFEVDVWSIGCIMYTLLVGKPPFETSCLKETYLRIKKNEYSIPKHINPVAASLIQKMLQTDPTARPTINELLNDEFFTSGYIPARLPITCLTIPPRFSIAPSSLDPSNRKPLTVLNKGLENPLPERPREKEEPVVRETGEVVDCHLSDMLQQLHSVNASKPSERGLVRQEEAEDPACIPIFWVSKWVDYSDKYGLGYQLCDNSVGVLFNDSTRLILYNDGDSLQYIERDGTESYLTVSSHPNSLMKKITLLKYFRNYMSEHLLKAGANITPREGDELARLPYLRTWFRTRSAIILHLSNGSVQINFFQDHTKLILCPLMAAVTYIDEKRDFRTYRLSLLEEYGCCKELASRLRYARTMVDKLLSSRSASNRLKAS
In words: Western blot, protein degradation (DC50). A digest of the protocol: as §2

The subject of experiment [11] is HUVEC. In words: Cell proliferation experiment (EC50), HUVEC. As to conditions: Homo sapiens.
Experiment [12] deals with PBMC. In words: Cell proliferation experiment (EC50), PBMC.
In experiment [13] the test system is Daudi. In words: Cell proliferation experiment (EC50), Daudi. The settings on record: Homo sapiens; Daudi cells.
Experiment [14] concerns U937. In words: Cell proliferation experiment (EC50), U937. The settings on record: Homo sapiens, U-937; U937 cells.
The test system of experiment [15] is A549. In words: Cell proliferation experiment (EC50), A549. As to conditions: Homo sapiens; A549 cells.
Experiment [16] relates to HUVEC. In words: Cell proliferation experiment (EC50), HUVEC. As to conditions: Homo sapiens. The source holds these as a separate data set.
Experiment [17] concerns PBMC. In words: Cell proliferation experiment (EC50), PBMC. This is another data set of the same source.
The test system of experiment [18] is Daudi. In words: Cell proliferation experiment (EC50), Daudi. The settings on record: Homo sapiens; Daudi cells. This is another data set of the same source.
For experiment [19], the system named is U937. In words: Cell proliferation experiment (EC50), U937. The settings on record: Homo sapiens, U-937; U937 cells. The source holds these as a separate data set.
Experiment [20] concerns A549. In words: Cell proliferation experiment (EC50), A549. As to conditions: Homo sapiens; A549 cells. The source holds these as a separate data set.
Experiment [21] relates to HUVEC. In words: Cell proliferation experiment (EC50), HUVEC.
Experiment [22] concerns PBMC. In words: Cell proliferation experiment (EC50), PBMC. The source holds these as a separate data set.
[23] abbreviates: 6 h, read-out: BRD4 DC50 (nM) (6 h).
Where [24] appears, read: 24 h, read-out: BRD4 DC50 (nM) (24 h).
Setting [25] is: 6 h, read-out: PLK1 DC50 (nM) (6 h).
The mark [26] stands for this setting: 24 h, read-out: PLK1 DC50 (nM) (24 h).

As a reminder, the EC50 is the midpoint of the concentration-response curve. A lower EC50 goes with a more potent agent. One may read the DC50 as the concentration giving 50% degradation. In the case of `CC[C@@H]1C(=O)N(C)c2cnc(Nc3ccc(C(=O)NC4CCN(CCNCCOCC(=O)Nc5cccc6c5CN(C5CCC(=O)NC5=O)C6=O)CC4)cc3OC)nc2N1Cc1ccc(Cl)s1` (stereo partly shown) [UB-180711], the EC50 was in the range of 0.1 to 1 µM in experiment [1]; 0.1 to 1 µM in experiment [2]; 0.1 to 1 µM in experiment [3] (Homo sapiens); 0.1 to 1 µM in experiment [4] (Homo sapiens, HCT-116); 0.1 to 1 µM in the experiment on Human Colon Cancer HT-29 (Homo sapiens); 0.1 to 1 µM in experiment [5] (Homo sapiens). For the same compound, the EC50 in [6] (MV4;11 cells) is under 0.01 µM; in [7], 0.1 to 1 µM; in experiment [8] (Homo sapiens, SK-OV-3) it was 0.1 to 1 µM; in experiment [9], 0.1 to 1 µM; in experiment [10] (Homo sapiens), 0.1 to 1 µM; with HUVEC [11], 0.1 to 1 µM. The EC50 in the experiment with PBMC [12], in the experiment on Daudi [13], in the experiment on U937 [14] and in the experiment on A549 [15] was 0.1 to 1 µM throughout. Besides, the DC50 on BRD4 (6 h, western blot, read-out: BRD4 DC50 (6 h)) is under 10 nM; on BRD4 (24 h, western blot, read-out: BRD4 DC50 (24 h)) it was under 10 nM; on PLK1 (6 h, western blot, read-out: PLK1 DC50 (6 h)) it was 10 to 100 nM; at PLK1 (24 h, western blot, read-out: PLK1 DC50 (24 h)) it was under 10 nM.
Regarding `CC[C@@H]1C(=O)N(C)c2cnc(Nc3ccc(C(=O)NCc4cn(CCNCCC(=O)Nc5cccc6c5CN(C5CCC(=O)NC5=O)C6=O)nn4)cc3OC)nc2N1Cc1ccc(Cl)s1` (stereo partly shown) [UB-180714], the EC50 in [6] (MV4-11, MV4;11 cells) lay in the range of 0.01 to 0.1 µM; in the experiment on HUVEC [16], 0.1 to 1 µM; with PBMC [17], 0.1 to 1 µM. The DC50 is under 10 nM on BRD4 (setting [23]), under 10 nM at BRD4 (setting [24]), 10 to 100 nM at PLK1 (setting [25]) and under 10 nM on PLK1 (setting [26]).
Regarding `CC[C@@H]1C(=O)N(C)c2cnc(Nc3ccc(C(=O)NC4CCN(CCOCCNCC(=O)Nc5cccc6c5CN(C5CCC(=O)NC5=O)C6=O)CC4)cc3OC)nc2N1Cc1ccc(Cl)s1` (stereo partly shown) [UB-180725], the EC50 in [2] fell in the range of 0.1 to 1 µM; in experiment [3] (Homo sapiens), 0.1 to 1 µM; in [4] (Homo sapiens, HCT-116), 0.1 to 1 µM; in the experiment with Human Colon Cancer HT-29 (Homo sapiens), 0.1 to 1 µM; in experiment [5] (Homo sapiens), 0.1 to 1 µM; in [6] (MV4-11, MV4;11 cells), 0.01 to 0.1 µM. In addition, the EC50 in experiment [7] lay within 0.1 to 1 µM; in [8] (Homo sapiens, SK-OV-3), 0.1 to 1 µM; in experiment [9], 0.1 to 1 µM; in experiment [10] (Homo sapiens), 0.1 to 1 µM; in the experiment on Daudi [18], 0.1 to 1 µM; in the experiment with U937 [19], 0.1 to 1 µM. Besides, the concentration giving a half-maximal response (EC50) with A549 [20] lay in the range of 0.1 to 1 µM. The DC50 on BRD4 (setting [23]), at BRD4 (setting [24]), on PLK1 (setting [25]) and at PLK1 (setting [26]) was under 10 nM in each case.
Take `O=C1CCC(N2Cc3c(NC(=O)CNCCOCCOCCOCCNC(=O)[C@]4(Cc5cccc(Nc6nccs6)n5)CC[C@@H](Oc5cccc(Cl)c5F)CC4)cccc3C2=O)C(=O)N1` (stereo partly shown) [UB-180730]: the EC50 was over 1 µM in experiment [2]; 0.1 to 1 µM in [4] (Homo sapiens, HCT-116); 0.01 to 0.1 µM in [6] (MV4-11, MV4;11 cells); over 1 µM in the experiment on HUVEC [16]; over 1 µM in the experiment on PBMC [17]. On PLK1 (setting [25]), the DC50 was under 10 nM.
On to `CC[C@@H]1C(=O)N(C)c2cnc(Nc3ccc(C(=O)NC4CCN(CCOCCN(CC(=O)Nc5cccc6c5CN(C5CCC(=O)NC5=O)C6=O)C(=O)OC(C)C(C)SSC[C@@H](NC(=O)CCOCCOCCOCCOCCOCCOCCNC(=O)CC[C@H](NC(=O)c5ccc(NCc6cnc7nc(N)[nH]c(=O)c7n6)cc5)C(=O)O)C(=O)O)CC4)cc3OC)nc2N1C1CCCC1` (stereo partly shown) [UB-180829], for which the EC50 (in experiment [3]; in experiment [4]; in the experiment on Human Colon Cancer HT-29; in [5]; in [8]; in experiment [10]) was 0.1 to 1 µM each time. The half-maximal effective concentration (EC50) in the experiment on HUVEC [21] and in the experiment on PBMC [22] was over 1 µM each time.
